This is an account of results in US11078216B2, “Bisaryl amides as NRF2 activators” (GLAXOSMITHKLINE INTELLECTUAL PROPERTY DEVELOPMENT LIMITED, priority 2016, dated 2021).

The assay has as its system NRF2 (NQO1 activity as marker for NRF2 activation), BEAS-2B cells. Nature of the assay: BEAS-2B NQO1 MTT Assay. The following applies: Homo sapiens, EC50 of NQO1 specific activity induction, 48 hours incubation, read-out: EC50. The class given is cell-based. The gist of the method: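 As a marker of NRF2 activation, NQO1 specific activity was read from the rate of absorbance change at 570 nm in MTT cocktail over 30 minutes. Lysates came from BEAS-2B cells treated for 48 hours at 37° C, and EC50 was derived by 3-parameter fitting.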

As a reminder, the EC50 is the concentration giving half of the maximal effect. For `CC[C@@H]1CN(Cc2cc([C@@H](c3ccc4c(nnn4CC)c3C)C(C)(C)C(=O)Nc3cnc(SC)nc3)ccc2C)S(=O)(=O)c2cccnc2O1` [Example 115, (S)-3-(3-(((R)-4-Ethyl-1,1-dioxido-3,4-dihydro-2H-pyrido[2,3-b][1,4,5]oxathiazepin-2-yl)methyl)-4-methylphenyl)-3-(1-ethyl-4-methyl-1H-benzo[d][1,2,3]triazol-5-yl)-2,2-dimethyl-N-(2-(methylthio)pyrimidin-5-yl)propanamide], the EC50 was in the range of 1 to 10 nM.

`CC[C@@H]1CN(Cc2cc([C@H](c3ccc4c(nnn4CC)c3C)C(C)(C)C(=O)Nc3cccnc3)ccc2C)S(=O)(=O)c2cccnc2O1` [Example 116, (R)-3-(3-(((R)-4-Ethyl-1,1-dioxido-3,4-dihydro-2H-pyrido[2,3-b][1,4,5]oxathiazepin-2-yl)methyl)-4-methylphenyl)-3-(1-ethyl-4-methyl-1H-benzo[d][1,2,3]triazol-5-yl)-2,2-dimethyl-N-(pyridin-3-yl)propanamide]: the EC50 lay in the range of 10 to 100 nM.

`CC[C@@H]1CN(Cc2cc([C@@H](c3ccc4c(nnn4CC)c3C)C(C)(C)C(=O)Nc3cncnc3)ccc2C)S(=O)(=O)c2cccnc2O1` [Example 117, (S)-3-(3-(((R)-4-Ethyl-1,1-dioxido-3,4-dihydro-2H-pyrido[2,3-b][1,4,5]oxathiazepin-2-yl)methyl)-4-methylphenyl)-3-(1-ethyl-4-methyl-1H-benzo[d][1,2,3]triazol-5-yl)-2,2-dimethyl-N-(pyrimidin-5-yl)propanamide]: the EC50 lay in the range of 1 to 10 nM.

Consider `CC[C@@H]1CN(Cc2cc([C@H](CC(=O)Nc3cnccn3)c3ccc4c(nnn4CC)c3C)ccc2C)S(=O)(=O)c2cccnc2O1` [Example 118, (S)-3-(3-(((R)-4-Ethyl-1,1-dioxido-3,4-dihydro-2H-pyrido[2,3-b][1,4,5]oxathiazepin-2-yl)methyl)-4-methylphenyl)-3-(1-ethyl-4-methyl-1H-benzo[d][1,2,3]triazol-5-yl)-N-(pyrazin-2-yl)propanamide], for which the EC50 lay in the range of 10 to 100 nM.

Consider `CC[C@H]1Cc2ncccc2S(=O)(=O)N(Cc2cc([C@@H](c3ccc4c(nnn4CC)c3C)C(C)(C)C(=O)Nc3cccnc3)ccc2C)C1` [Example 119, (S)-3-(3-(((S)-4-Ethyl-1,1-dioxido-4,5-dihydropyrido[2,3-f][1,2]thiazepin-2(3H)-yl)methyl)-4-methylphenyl)-3-(1-ethyl-4-methyl-1H-benzo[d][1,2,3]triazol-5-yl)-2,2-dimethyl-N-(pyridin-3-yl)propanamide], for which the EC50 was 1 to 10 nM.

On to `CC[C@@H]1CN(Cc2cc([C@@H](c3ccc4c(nnn4CC)c3C)C(C)(C)C(=O)Nc3cccnc3)ccc2C)S(=O)(=O)c2cccnc2O1` [Example 120, (S)-3-(3-(((R)-4-Ethyl-1,1-dioxido-3,4-dihydro-2H-pyrido[2,3-b][1,4,5]oxathiazepin-2-yl)methyl)-4-methylphenyl)-3-(1-ethyl-4-methyl-1H-benzo[d][1,2,3]triazol-5-yl)-2,2-dimethyl-N-(pyridin-3-yl)propanamide], for which the EC50 was in the range of 1 to 10 nM.

In the case of `CC[C@@H]1CN(Cc2cc([C@H](CC(=O)Nc3ncccn3)c3ccc4c(nnn4CC)c3C)ccc2C)S(=O)(=O)c2cccnc2O1` [Example 121, (S)-3-(3-(((R)-4-Ethyl-1,1-dioxido-3,4-dihydro-2H-pyrido[2,3-b][1,4,5]oxathiazepin-2-yl)methyl)-4-methylphenyl)-3-(1-ethyl-4-methyl-1H-benzo[d][1,2,3]triazol-5-yl)-N-(pyrimidin-2-yl)propanamide], the EC50 was in the range of 100 to 1000 nM.

Consider `CC[C@@H]1CN(Cc2cc([C@H](CC(=O)Nc3cccnn3)c3ccc4c(nnn4CC)c3C)ccc2C)S(=O)(=O)c2cccnc2O1` [Example 122, (S)-3-(3-(((R)-4-Ethyl-1,1-dioxido-3,4-dihydro-2H-pyrido[2,3-b][1,4,5]oxathiazepin-2-yl)methyl)-4-methylphenyl)-3-(1-ethyl-4-methyl-1H-benzo[d][1,2,3]triazol-5-yl)-N-(pyridazin-3-yl)propanamide], for which the concentration giving a half-maximal response (EC50) fell in the range of 100 to 1000 nM.
